Results taken from patent US10597375B2, “Halogen-substituted heterocyclic compound” (UBE INDUSTRIES, LTD., priority 2012, dated 2020).

What was measured:
[1] = target: T1, human LPA1 receptor (Homo sapiens, UniProt Q92633); test: Binding test of GTPγS to LPA1 receptor; assay type: biochemical; conditions: membrane fraction of RH 7777 cells expressed with human LPA1 receptor; LPA 100 nM; read-out: IC50: concentration of the test compound which inhibits the binding of LPA1 receptor and [35S]GTPγS by 50%
T1 construct: purchased ChanTest A324; host or cells: RH 7777 cells (recombinant expression; membrane fraction)
Description: Binding test of GTPγS to LPA1 receptor
5 μg of the membrane fraction of RH 7777 cells expressed with human LPA1 receptor (A324, ChanTest) was suspended in a reaction buffer (20 mM HEPES, 100 mM NaCl, 10 mM MgCl2, 10 μM GDP, 5 μg saponin, 0.2% BSA, 0.1 nM [^35S]GTPγS (NEG030X, Perkin Elmer), pH 7.4), and the test compound dissolved in DMSO in various concentrations was added. After preincubation at 30° C. for 15 minutes, LPA (L7260, Sigma, the final concentration of 100 nM) was added, and the suspension was incubated at 30° C. for 30 minutes. The membrane fraction was collected onto a glass fiber filter (GF/B, Whatman) by using a cell harvester (M30, Brandel), and washed with a 10 mM phosphate buffer (pH 7.4). The radioactivity of the membrane fraction was measured using a liquid scintillation analyzer (2900TR, Packard) and the concentration of the test compound which inhibits the binding of LPA1 receptor and [^35S]GTPγS by 50%, (1050) was determined by non-linear regression analysis using EXSAS (version 7.6.0, Arm Systex).

[2] = tested on: A2058 human melanoma cells; test: Cell migration test (LPA-induced, Chemo-Tx); assay type: cell-based; conditions: LPA 100 nM, 3 hours, read-out: IC50: concentration of the test compound which inhibits the cell migration activity of LPA by 50%
Description: The cell migration test was carried out using Chemo-Tx (registered trademark) (116-8, Neuro Probe). A2058 human melanoma cells (obtained from European Collection of Cell Culture) were cultured in a serum-free EMEM medium for 24 hours, and then re-suspended in a 0.1% BSA-containing DMEM medium to obtain a cell suspension. The test compound dissolved in DMSO in various concentration was each added to the cell suspension, and the suspension was cultured at 37° C. for 15 minutes (the final DMSO concentration of 0.5%). LPA dissolved in a 0.1% BSA-containing DMEM medium (the final concentration of 100 nM) was added to Chemo-Tx 96 well plate, and a Chemo-Tx filter which had been coated with 0.001% Fibronectin on the both surfaces was put on the plate. The suspension of cultured cells (25,000 cells) was added onto the upper surface of the filter and further cultured at 37° C. for 3 hours, and the cells on the upper surface of the filter were removed. After the filter was removed and dried, the cells which had migrated to the lower surface of the filter were stained using Diff-Quik stain (16920, Sysmex). The absorbance of the filter (570 nm) was measured and the concentration of the test compound which inhibits the cell migration activity of LPA by 50%, (1050) was determined by non-linear regression analysis using EXSAS (version 7.6.0, Arm Systex).

[3] = tested on: LPA-induced histamine release; test: LPA-induced histamine release test in mouse; assay type: in vivo; conditions: male CD1 mice; oral dose of 10 mg/kg; LPA 300 μg/mouse via tail vein 4 hours after administration; blood 2 minutes after LPA; read-out: efficacy rate (rate of individuals which showed the inhibition rate of 80% or more of plasma histamine)
Description: LPA-Induced Histamine Release Test in Mouse
LPA-induced histamine release test in mouse was carried out according to a method by Swaney et al. (The Journal of Pharmacology and Experimental Therapeutics, 336 (2011), pages 693-700). The test compound was suspended in 0.5% methylcellulose solution (133-14255, Wako), and orally administered to male CD1 mice (body weight: 30 to 40 g, supplied by Charles River Laboratories Japan) at a dose of 10 mL/kg. 4 hours after administration, LPA (857130P, Avanti) dissolved in a 0.1% BSA-containing PBS was administered via the tail vein (300 μg/mouse). Immediately, the mouse was anesthetized with isoflurane, and blood was collected via a vein 2 minutes after the administration of LPA. The blood was put into a test tube containing EDTA, and centrifuged at 4° C., 2,000×g, for 10 minutes to obtain the plasma.
The histamine concentration in the plasma was measured by EIA kit (62HTMPEB, Cisbio Bioassays).

T1 sequence (Q92633 whole entry): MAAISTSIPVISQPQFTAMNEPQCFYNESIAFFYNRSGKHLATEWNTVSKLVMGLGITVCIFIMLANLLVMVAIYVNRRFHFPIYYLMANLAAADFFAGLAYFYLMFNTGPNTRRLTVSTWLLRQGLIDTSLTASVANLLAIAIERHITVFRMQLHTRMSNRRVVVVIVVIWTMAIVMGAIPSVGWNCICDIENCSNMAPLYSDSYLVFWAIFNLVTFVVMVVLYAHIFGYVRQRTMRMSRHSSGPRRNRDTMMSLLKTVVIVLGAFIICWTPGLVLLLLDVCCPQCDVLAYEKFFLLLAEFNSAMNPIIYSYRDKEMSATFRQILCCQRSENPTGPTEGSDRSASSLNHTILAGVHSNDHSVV

| Compound | IC50 [1] [µM] | IC50 [2] [µM] | responders at 10 mg/kg [3] [%] |
| --- | --- | --- | --- |
| CC(OC(=O)Nc1cc(Br)sc1-c1ccc(-c2ccc(C3(C(=O)O)CC3)cc2)cc1)c1ccccc1Cl (racemic) [I-11, (RS)-1-{4′-[5-Bromo-3-({[1-(2-chlorophenyl)ethoxy]carbonyl}amino)thiophen-2-yl]-[1,1′-biphenyl]-4-yl}cyclopropanecarboxylic acid] | ≤ 0.2 |  |  |
| COc1cc(-c2sc(F)cc2NC(=O)O[C@H](C)c2ccccc2C)ccc1-c1ccc(C2(C(=O)O)CC2)cc1 [I-450, (R)-1-{4′-[5-Fluoro-3-({[1-(o-tolyl)ethoxy]carbonyl}amino)thiophen-2-yl]-2′-methoxy-[1,1′-biphenyl]-4-yl}cyclopropanecarboxylic acid] |  | ≤ 0.2 | ≥ 50 |
| COc1cc(-c2sc(F)cc2NC(=O)O[C@H](C)c2cc(F)ccc2F)ccc1-c1ccc(C2(C(=O)O)CC2)cc1 [I-458, (R)-1-{4′-[3-({[1-(2,5-Difluorophenyl)ethoxy]carbonyl}amino)-5-fluorothiophen-2-yl]-2′-methoxy-[1,1′-biphenyl]-4-yl}cyclopropanecarboxylic acid] |  | ≤ 0.2 | ≥ 50 |
| C[C@@H](OC(=O)Nc1cc(Cl)sc1-c1ccc(-c2ccc(C3(C(=O)O)CC3)cc2)cc1)c1ccsc1 [I-596, (R)-1-{4′-[5-Chloro-3-({[1-(thiophen-3-yl)ethoxy]carbonyl}amino)thiophen-2-yl]-[1,1′-biphenyl]-4-yl}cyclopropanecarboxylic acid] |  | ≤ 0.2 | ≥ 50 |
| Cc1cscc1[C@@H](C)OC(=O)Nc1cc(Cl)sc1-c1ccc(-c2ccc(C3(C(=O)O)CC3)cc2)cc1 [I-606, (R)-1-{4′-[5-Chloro-3-({[1-(4-methylthiophen-3-yl)ethoxy]carbonyl}amino)thiophen-2-yl]-[1,1′-biphenyl]-4-yl}cyclopropanecarboxylic acid] |  | ≤ 0.2 | ≥ 50 |
| C[C@@H](OC(=O)Nc1cc(F)sc1-c1ccc(-c2ccc(C3(C(=O)O)CC3)cc2)cc1)c1ccsc1 [I-640, (R)-1-{4′-[5-Fluoro-3-({[1-(thiophen-3-yl)ethoxy]carbonyl}amino)thiophen-2-yl]-[1,1′-biphenyl]-4-yl}cyclopropanecarboxylic acid] |  | ≤ 0.2 | ≥ 50 |
| Cc1cscc1[C@@H](C)OC(=O)Nc1cc(F)sc1-c1ccc(-c2ccc(C3(C(=O)O)CC3)cc2)cc1 [I-650, (R)-1-{4′-[5-Fluoro-3-({[1-(4-methylthiophen-3-yl)ethoxy]carbonyl}amino)thiophen-2-yl]-[1,1′-biphenyl]-4-yl}cyclopropanecarboxylic acid] |  | ≤ 0.2 | ≥ 50 |
| COc1cc(-c2sc(Cl)cc2NC(=O)O[C@H](C)c2ccsc2)ccc1-c1ccc(C2(C(=O)O)CC2)cc1 [I-780, (R)-1-{4′-[5-Chloro-3-({[1-(thiophen-3-yl)ethoxy]carbonyl}amino)thiophen-2-yl]-2′-methoxy-[1,1′-biphenyl]-4-yl}cyclopropanecarboxylic acid] |  | ≤ 0.2 | ≥ 50 |

Further lines, with some results ahead:

| IC50 [1] [µM] | IC50 [2] [µM] | Compound | responders at 10 mg/kg [3] [%] |
| --- | --- | --- | --- |
| ≤ 0.2 | ≤ 0.2 | CC(OC(=O)Nc1cc(Cl)sc1-c1ccc(-c2ccc(C3(C(=O)O)CC3)cc2)cc1)c1ccccc1Cl (racemic) [I-51, (RS)-1-{4′-[5-Chloro-3-({[1-(2-chlorophenyl)ethoxy]carbonyl}amino)thiophen-2-yl]-[1,1′-biphenyl]-4-yl}cyclopropanecarboxylic acid] |  |
| ≤ 0.2 | ≤ 0.2 | C[C@@H](OC(=O)Nc1cc(Cl)sc1-c1ccc(-c2ccc(C3(C(=O)O)CC3)cc2)cc1)c1ccccc1 [I-24, (R)-1-[4′-(5-Chloro-3-{[(1-phenylethoxy)carbonyl]amino}thiophen-2-yl)-[1,1′-biphenyl]-4-yl]cyclopropanecarboxylic acid] | ≥ 50 |
| ≤ 0.2 | ≤ 0.2 | C[C@@H](OC(=O)Nc1cc(Cl)sc1-c1ccc(-c2ccc(C3(C(=O)O)CC3)cc2)cc1)c1ccccc1F [I-28, (R)-1-{4′-[5-Chloro-3-({[1-(2-fluorophenyl)ethoxy]carbonyl}amino)thiophen-2-yl]-[1,1′-biphenyl]-4-yl}cyclopropanecarboxylic acid] | ≥ 50 |
| ≤ 0.2 | ≤ 0.2 | C[C@@H](OC(=O)Nc1cc(Cl)sc1-c1ccc(-c2ccc(C3(C(=O)O)CC3)cc2)cc1)c1cccc(F)c1 [I-38, (R)-1-{4′-[5-Chloro-3-({[1-(3-fluorophenyl)ethoxy]carbonyl}amino)thiophen-2-yl]-[1,1′-biphenyl]-4-yl}cyclopropanecarboxylic acid] | ≥ 50 |
| ≤ 0.2 | ≤ 0.2 | C[C@@H](OC(=O)Nc1cc(Cl)sc1-c1ccc(-c2ccc(C3(C(=O)O)CC3)cc2)cc1)c1ccc(F)cc1 [I-42, (R)-1-{4′-[5-Chloro-3-({[1-(4-fluorophenyl)ethoxy]carbonyl}amino)thiophen-2-yl]-[1,1′-biphenyl]-4-yl}cyclopropanecarboxylic acid] | ≥ 50 |
| ≤ 0.2 | ≤ 0.2 | C[C@@H](OC(=O)Nc1cc(Cl)sc1-c1ccc(-c2ccc(C3(C(=O)O)CC3)cc2)cc1)c1ccc(F)cc1Cl [I-76, (R)-1-{4′-[5-Chloro-3-({[1-(2-chloro-4-fluorophenyl)ethoxy]carbonyl}amino)thiophen-2-yl]-[1,1′-biphenyl]-4-yl}cyclopropanecarboxylic acid] |  |
| ≤ 0.2 | ≤ 0.2 | C[C@@H](OC(=O)Nc1cc(F)sc1-c1ccc(-c2ccc(C3(C(=O)O)CC3)cc2)cc1)c1ccc(F)cc1F [I-140, (R)-1-{4′-[3-({[1-(2,4-Difluorophenyl)ethoxy]carbonyl}amino)-5-fluorothiophen-2-yl]-[1,1′-biphenyl]-4-yl}cyclopropanecarboxylic acid] |  |
|  | ≤ 0.2 | COc1cc(-c2sc(F)cc2NC(=O)O[C@H](C)c2ccccc2F)ccc1-c1ccc(C2(C(=O)O)CC2)cc1 [I-424, (R)-1-{4′-[5-Fluoro-3-({[1-(2-fluorophenyl)ethoxy]carbonyl}amino)thiophen-2-yl]-2′-methoxy-[1,1′-biphenyl]-4-yl}cyclopropanecarboxylic acid] | ≥ 50 |
|  | ≤ 0.2 | COc1cc(-c2sc(F)cc2NC(=O)O[C@H](C)c2cccc(F)c2)ccc1-c1ccc(C2(C(=O)O)CC2)cc1 [I-428, (R)-1-{4′-[5-Fluoro-3-({[1-(3-fluorophenyl)ethoxy]carbonyl}amino)thiophen-2-yl]-2′-methoxy-[1,1′-biphenyl]-4-yl}cyclopropanecarboxylic acid] | ≥ 50 |
|  | ≤ 0.2 | COc1cc(-c2sc(F)cc2NC(=O)O[C@H](C)c2ccc(F)cc2)ccc1-c1ccc(C2(C(=O)O)CC2)cc1 [I-432, (R)-1-{4′-[5-Fluoro-3-({[1-(4-fluorophenyl)ethoxy]carbonyl}amino)thiophen-2-yl]-2′-methoxy-[1,1′-biphenyl]-4-yl}cyclopropanecarboxylic acid] | ≥ 50 |
|  | ≤ 0.2 | COc1cc(-c2sc(F)cc2NC(=O)O[C@H](C)c2ccccc2Cl)ccc1-c1ccc(C2(C(=O)O)CC2)cc1 [I-442, (R)-1-{4′-[3-({[1-(2-Chlorophenyl)ethoxy]carbonyl}amino)-5-fluorothiophen-2-yl]-2′-methoxy-[1,1′-biphenyl]-4-yl}cyclopropanecarboxylic acid] | ≥ 50 |
